# Laboratory results published in US20230255939A1, “Antimicrobial Agent for Non-Human Animal” (ISHIHARA SANGYO KAISHA, LTD, priority 2020, published 2023).
# What was measured:
# Assay type in all cases: cell-based
# [1] = tested on: Microsporum canis (TIMM20080 strain); assay: Antimicrobial activity test, minimum inhibitory concentration (Test Example 4); conditions: Sabouraud media, 28° C. for 72 hours
# Method: Test Example 4: Antimicrobial Activity Test Test Compound: Compound No. 1
# Test Microbial Strain: Microsporum Canis (TIMM20080 Strain)
# The microbial strain was cultured in a Sabouraud medium containing 500 µg/mL of cycloheximide and 50 µg/mL of chloramphenicol at 28° C. for 8 days, then spores were collected in physiological saline containing Tween80 (0.05% (v/v)), this was filtered through a cell strainer (φ40 µm), the spores were recovered from the filtrate by centrifugation (3500 rpm, 5 minutes) and washed twice with physiological saline, and then a spore suspension was prepared (1 × 10^7 spores/mL). 10 µL of the spore suspension was inoculated into Sabouraud media to which compound No. 1 dissolved in DMSO was added to have various concentrations. After culturing at 28° C. for 72 hours, the amount of microbial growth was investigated, and the minimum inhibitory concentration was determined.
# [2] = tested on: M. globosa (IMF51946 strain); assay: Antimicrobial activity against microbes of genus Malassezia: colony formation inhibition (Test Example 2); conditions: 1 min, final concentration 500 ppm, 1 minute contact, read-out: Colony formation inhibition rate (%)
# Method: (§1) The Malassezia microbe (Malassezia pachydermatis) cultured for 5 to 7 days in a Sabouraud medium (1% peptone, 4% dextrin, 1.5% agar) supplemented with 0.5% of Tween 40 (polyoxyethylene sorbitan monopalmitate: manufactured by Kanto Chemical Co., Inc.) was suspended in physiological saline and a suspension thereof was prepared in such a way as to have an absorbance of 0.25 at 550 nm. Thereto, the test compound dissolved in DMSO was added in such a way as to provide a final concentration of 500 ppm, and after 1 minute, 10 µL of the suspension and 10 mL of physiological saline were placed in a syringe and stirred, and the syringe was connected to a 37 mm Quality Monitor (manufactured by Pall Corporation) followed by filtration and washing. The membrane filter was impregnated as it was with a Sabouraud medium supplemented with 1% of Tween80 (polyoxyethylene sorbitan monooleate: manufactured by Kanto Chemical Co., Ltd.) and subjected to culturing at 32° C. for 72 hours, the number of colonies formed there (number of colonies in the inventive plot) and the number of colonies in a solvent to which the test compound was not added (the number of colonies in the non-agent treated plot) were measured, and the colony formation inhibition rate (%) was determined according to the following expression. Colony formation inhibition rate (%) = [(number of colonies in non-agent treated plot - number of colonies in inventive plot)/number of colonies in non-agent treated plot] × 100 Test compound: Compound No. 1 (final concentration of 500 ppm) Test microbial strains: Malassezia pachydermatis (IFM56528 strain), M. furfur (IMF55951 strain), M. sympodialis (IMF48588 strain), M. globosa (IMF51946 strain), and M. restricta (IMF55992 strain) The colony formation inhibition rate for each of the test strains was determined by the same method as in Test Example 1.
# [3] = tested on: M. furfur (IMF55951 strain); assay: as above; conditions: 1 min, final concentration 500 ppm, 1 minute contact, read-out: Colony formation inhibition rate (%)
# Method: as §1
# [4] = tested on: M. sympodialis (IMF48588 strain); assay: as above; conditions: 1 min, final concentration 500 ppm, 1 minute contact, read-out: Colony formation inhibition rate (%)
# Method: as §1
# [5] = tested on: M. restricta (IMF55992 strain); assay: as above; conditions: 1 min, final concentration 500 ppm, 1 minute contact, read-out: Colony formation inhibition rate (%)
# Method: as §1
# [6] = tested on: Malassezia pachydermatis (IFM56528 strain); assay: Antimicrobial activity test: colony formation inhibition after 1 minute contact (Test Examples 1 and 2); conditions: M. pachydermatis IFM56528, final concentration 500 ppm, then culturing at 32° C. for 72 hours, read-out: Colony formation inhibition rate (%)
# Method: Test microbial strain: Malassezia pachydermatis (IFM56528 strain, strain obtained from Chiba University) The Malassezia microbe (Malassezia pachydermatis) cultured for 5 to 7 days in a Sabouraud medium (1% peptone, 4% dextrin, 1.5% agar) supplemented with 0.5% of Tween 40 (polyoxyethylene sorbitan monopalmitate: manufactured by Kanto Chemical Co., Inc.) was suspended in physiological saline and a suspension thereof was prepared in such a way as to have an absorbance of 0.25 at 550 nm. […] Colony formation inhibition rate (%) = [(number of colonies in non-agent treated plot - number of colonies in inventive plot)/number of colonies in non-agent treated plot] × 100 Test compound: Compound No. 1 (final concentration of 500 ppm) Test microbial strains: Malassezia pachydermatis (IFM56528 strain), M. furfur (IMF55951 strain), M. sympodialis (IMF48588 strain), M. globosa (IMF51946 strain), and M. restricta (IMF55992 strain) The colony formation inhibition rate for each of the test strains was determined by the same method as in Test Example 1.
# [7] = tested on: Staphylococcus pseudointermedius (JCM 17571); assay: Antimicrobial activity test, minimum bactericidal concentration after 1 minute contact (Test Example 6); conditions: JCM17571, S. pseudintermedius JCM 17571, then LB medium 30° C. for 72 hours, read-out: Minimum bactericidal concentration (MBC100)
# Method: Test Example 6: Antimicrobial Activity test Test Compound: Compound No. 6 Test Microbial Strain: Staphylococcus Pseudointermedius (JCM 17571) The staphylococcus (Staphylococcus pseudointermedius) cultured for 24 hours on a Luria Broth (LB) agar medium plate (peptone, yeast extract, sodium chloride, agar, Invitrogen) was suspended in physiological saline, and a suspension thereof was prepared in such a way as to have an absorbance of 0.025 at 600 nm. Thereto, the test compound dissolved in DMSO was added in such a way as to provide a final concentration of 200, 100, 50, or 25 ppm, and after 1 minute, 10 µL of the suspension and 10 mL of physiological saline were placed in a syringe and stirred, and the syringe was connected to a 37 mm Quality Monitor (manufactured by Pall Corporation) followed by filtration and washing twice with 10 mL of physiological saline. The membrane filter was impregnated as it was with an LB medium and subjected to culturing at 30° C. for 72 hours, the presence or absence of colony growth was investigated, and the minimum bactericidal concentration (MBC100) was determined.
SMILES,MIC [1] [mg/L],inhibition at 500 ppm [2] [%],inhibition at 500 ppm [3] [%],inhibition at 500 ppm [4] [%],inhibition at 500 ppm [5] [%],inhibition at 500 ppm [6] [%],MBC [7] [mg/L]
"Cc1ccc(-c2nc(C#N)[nH]c2Cl)cc1 [Compound No. 1, 5-Chloro-4-(4-methylphenyl)-1H-imidazole-2-carbonitrile]",10,97,100,100,100,100,–
"Cc1ccc(-c2nc(C#N)[nH]c2Cl)cc1Cl [Compound No. 6, 5-chloro-4-(3-chloro-4-methylphenyl)-1H-imidazole-2-carbonitrile]",–,–,–,–,–,–,50
